The record followed here is ChEMBL document CHEMBL5370612, “Cytotoxic Epipolythiodioxopiperazines from the Deep-Sea-Derived Fungus Exophiala mesophila MCCC 3A00939” (J Nat Prod, 2023).

By IC50 is commonly meant the concentration that gives 50% inhibition. Low values mean higher potency, high ones lower potency.

Series [1] can be described thus: Cytotoxicity against human L02 cells by SRB method. It counts as toxicity, cell-based. Background: The SRB assay estimates cell density from bound dye.
For series [2], the system named is K562. The series is described as follows: Cytotoxicity against human K562 cells by MTT method. It counts as functional, cell-based. In general terms: Tetrazolium assays rely on reduction of a dye to a coloured formazan, in cell work by metabolically active cells.
Series [3] relates to ASPC1. The series is described as follows: Cytotoxicity against human ASPC1 cells by SRB method. In kind it is functional, cell-based.
Series [4] concerns H69AR. The series is described as follows: Cytotoxicity against human NCI-H69AR cells by SRB method. In kind it is functional, cell-based.
The subject of series [5] is MDA-MB-231. The series is described as follows: Cytotoxicity against human MDA-MB-231 cells by SRB method. It counts as functional, cell-based.

With `CS[C@@]12CC3=COC=C[C@H](OC(C)=O)[C@H]3N1C(=O)[C@]1(SC)CC3=COC=C[C@H](OC(C)=O)[C@H]3N1C2=O`, the IC50 in series [1], in series [2], in series [3], in series [4] and in series [5] was more than 30 µM each time.
As to `CS[C@@]12CC3=COC=C[C@H](O)[C@H]3N1C(=O)[C@]1(SC)CC3=COC=C[C@H](O)[C@H]3N1C2=O`, the half-inhibitory concentration (IC50) in series [1], in series [2], in series [3], in series [4] and in series [5] was more than 30 µM throughout.
With `CS[C@@]12CC3=COC=C[C@H](OC(C)=O)[C@H]3N1C(=O)[C@]1(SC)CC3=COC=C[C@H](O)[C@H]3N1C2=O`, the IC50 in series [1], in series [2], in series [3], in series [4] and in series [5] was more than 30 µM throughout.
With `CS[C@@]12CC3=COC=C[C@H](OC(=O)CC(C)=C(C)C)[C@H]3N1C(=O)[C@]1(SC)CC3=COC=C[C@H](O)[C@H]3N1C2=O`, the IC50 in series [1], in series [2], in series [3], in series [4] and in series [5] was more than 30 µM each time.
`CS[C@@]12CC3=COC=C[C@H](OC(C)=O)[C@H]3N1C(=O)[C@]1(SC)CC3=COC=C[C@H](OC(=O)CC(C)=C(C)C)[C@H]3N1C2=O`: the half-inhibitory concentration (IC50) is more than 30 µM in series [1]; more than 30 µM in series [2]; more than 30 µM in series [3]; more than 30 µM in series [4]; 29 µM in series [5].
For the molecule `CC(C)=C(C)CC(=O)O[C@H]1C=COC=C2C[C@@]34SSSS[C@]5(CC6=COC=C[C@H](O)[C@H]6N5C3=O)C(=O)N4[C@@H]21`, the IC50 in series [1] was 8.5 µM; in series [2], 2.3 µM; in series [3] it was 13 µM; in series [4], 5.9 µM; in series [5], 3.7 µM.
For `O=C(Cc1ccccc1)O[C@H]1C=COC=C2C[C@@]34SSSS[C@]5(CC6=COC=C[C@H](O)[C@H]6N5C3=O)C(=O)N4[C@@H]21` the same measures were 18 µM, 3.1 µM, 25 µM, 3.6 µM and 4.3 µM.
In the same order, the values of `CC(=O)O[C@H]1C=COC=C2C[C@@]34SS[C@]5(CC6=COC=C[C@H](O)[C@H]6N5C3=O)C(=O)N4[C@@H]21` [ARANOTIN] are 16 µM, 1.4 µM, 11 µM, 1.7 µM and 0.7 µM.
On to `COc1cccc2c1C(=O)c1c(O)c3c(c(O)c1C2=O)C[C@@](O)(C(=O)CO)C[C@@H]3O[C@H]1C[C@H](N)[C@H](O)[C@H](C)O1` [DOXORUBICIN], for which the IC50 in series [1], in series [2], in series [3], in series [4] and in series [5] was less than 1 µM throughout.
